Experimental data taken from ChEMBL document CHEMBL5303573, “Mapping human microbiome drug metabolism by gut bacteria and their genes” (Nature, 2019).

Columns and labels:
[1] = The drug is tested on Bifidobacterium longum subsp. Infantis strain: CCUG52486 for biotransformation. The drug concentrations were measured before and after a 12-h incubation by liquid-chromatography-coupled mass spectrometry (LC–MS); conditions: 2 µM
[2] = The drug is tested on Bifidobacterium ruminantium strain: fecal isolate for biotransformation. The drug concentrations were measured before and after a 12-h incubation by liquid-chromatography-coupled mass spectrometry (LC–MS); conditions: 2 µM
[3] = The drug is tested on Collinsella aerofaciens strain: ATCC25986 for biotransformation. The drug concentrations were measured before and after a 12-h incubation by liquid-chromatography-coupled mass spectrometry (LC–MS); conditions: 2 µM
[4] = The drug is tested on Bacteroides caccae strain: ATCC43185 for biotransformation. The drug concentrations were measured before and after a 12-h incubation by liquid-chromatography-coupled mass spectrometry (LC–MS); conditions: 2 µM
[5] = The drug is tested on Bacteroides fragilis strain: HMW615 for biotransformation. The drug concentrations were measured before and after a 12-h incubation by liquid-chromatography-coupled mass spectrometry (LC–MS); conditions: 2 µM
[6] = The drug is tested on Odoribacter splanchnicus strain: fecal isolate for biotransformation. The drug concentrations were measured before and after a 12-h incubation by liquid-chromatography-coupled mass spectrometry (LC–MS); conditions: 2 µM
[7] = The drug is tested on Anaerotruncus colihominis strain: DSM17241 for biotransformation. The drug concentrations were measured before and after a 12-h incubation by liquid-chromatography-coupled mass spectrometry (LC–MS); conditions: 2 µM
[8] = The drug is tested on Blautia hansenii strain: DSM20583 for biotransformation. The drug concentrations were measured before and after a 12-h incubation by liquid-chromatography-coupled mass spectrometry (LC–MS); conditions: 2 µM
[9] = The drug is tested on Clostridium ramosum strain: DSM1402 for biotransformation. The drug concentrations were measured before and after a 12-h incubation by liquid-chromatography-coupled mass spectrometry (LC–MS); conditions: thomasclavelia ramosa, 2 µM
[10] = The drug is tested on Clostridium sporogenes strain: ATCC15579 for biotransformation. The drug concentrations were measured before and after a 12-h incubation by liquid-chromatography-coupled mass spectrometry (LC–MS); conditions: 2 µM
[11] = The drug is tested on Coprococcus comes strain: ATCC27758 for biotransformation. The drug concentrations were measured before and after a 12-h incubation by liquid-chromatography-coupled mass spectrometry (LC–MS); assay type: ADME; parameters: dose 2 uM, timepoint 0 vs 12 hours; conditions: 2 µM
[12] = The drug is tested on Ruminococcus lactaris strain: ATCC29176 for biotransformation. The drug concentrations were measured before and after a 12-h incubation by liquid-chromatography-coupled mass spectrometry (LC–MS); conditions: 2 µM
[13] = The drug is tested on Ruminococcus torques strain: ATCC27756 for biotransformation. The drug concentrations were measured before and after a 12-h incubation by liquid-chromatography-coupled mass spectrometry (LC–MS); assay type: ADME; parameters: dose 2 uM, timepoint 0 vs 12 hours; conditions: 2 µM
[14] = The drug is tested on Enterobacter cancerogenus strain: ATCC35316 for biotransformation. The drug concentrations were measured before and after a 12-h incubation by liquid-chromatography-coupled mass spectrometry (LC–MS); conditions: 2 µM
[15] = The drug is tested on Providencia rettgeri strain: DSM1131 for biotransformation. The drug concentrations were measured before and after a 12-h incubation by liquid-chromatography-coupled mass spectrometry (LC–MS); assay type: ADME; parameters: dose 2 uM, timepoint 0 vs 12 hours; conditions: 2 µM
[16] = bacteroides fragilis, 12 h, 2 µM
Description: The drug is tested on Bacteroides fragilis strain: NCTC 9343 for biotransformation. The drug concentrations were measured before and after a 12-h incubation by liquid-chromatography-coupled mass spectrometry (LC–MS)

[17] = bacteroides fragilis, 12 h, 2 µM; remark: listed apart in the source
Description: The drug is tested on Bacteroides fragilis strain: DS-208 for biotransformation. The drug concentrations were measured before and after a 12-h incubation by liquid-chromatography-coupled mass spectrometry (LC–MS)

[18] = bacteroides intestinalis, 12 h, 2 µM
Description: The drug is tested on Bacteroides intestinalis strain: DSM17393 for biotransformation. The drug concentrations were measured before and after a 12-h incubation by liquid-chromatography-coupled mass spectrometry (LC–MS)

[19] = The drug is tested on Bacteroides cellulosilyticus strain: DSM14838 for biotransformation. The drug concentrations were measured before and after a 12-h incubation by liquid-chromatography-coupled mass spectrometry (LC–MS); conditions: 2 µM

Measured: Bacterial Biotransformation

CCCCC(=O)N(Cc1ccc(-c2ccccc2-c2nnn[nH]2)cc1)[C@H](C(=O)O)C(C)C
Compound metabolized: [5] | [6] | [17] | [18]
Compound NOT metabolized: [1] | [2] | [3] | [4] | [7] | [8] | [9] | [10] | [11] | [12] | [13] | [14] | [15] | [16]

COc1ccc(/C=C/C(=O)Nc2ccccc2C(=O)O)cc1OC
Compound NOT metabolized: [1] | [3] | [19] | [5] | [6] | [7] | [8] | [9] | [10] | [11] | [12] | [13] | [14] | [15] | [17] | [18]

Cc1cc(C)cc(OCC2CNC(=O)O2)c1 (stereo not drawn) [METAXALONE]
Compound NOT metabolized: [1] | [2] | [3] | [4] | [6] | [7] | [10] | [11] | [12] | [18]
Compound metabolized: [5] | [8] | [16]

COC(=O)C(c1ccccc1)C1CCCCN1 (stereo not drawn) [METHYLPHENIDATE]
Compound metabolized: [2] | [8] | [10]
Compound NOT metabolized: [1] | [3] | [4] | [5] | [7] | [11] | [12] | [13] | [14] | [17] | [18]

C=C[C@H]1CN2CC[C@H]1C[C@H]2[C@H](O)c1ccnc2ccc(OC)cc12.C=C[C@H]1CN2CC[C@H]1C[C@H]2[C@H](O)c1ccnc2ccc(OC)cc12.O.O.O=S(=O)(O)O [QUININE SULFATE]
Compound NOT metabolized: [1] | [2] | [3] | [4] | [5] | [6] | [7] | [9] | [11] | [13] | [15] | [18]

CCC(=O)NCC[C@@H]1CCc2ccc3c(c21)CCO3 [RAMELTEON]
Compound NOT metabolized: [1] | [2] | [3] | [19] | [7] | [9] | [10] | [11] | [12] | [13] | [15]
Compound metabolized: [6] | [8] | [16] | [17]

CCN(CC)CCNC(=O)c1cc(S(C)(=O)=O)ccc1OC [TIAPRIDE]
Compound NOT metabolized: [1] | [3] | [4] | [5] | [6] | [7] | [8] | [9] | [10] | [11] | [12] | [13] | [14] | [15] | [16] | [18]

Cc1ccc(/C(=C\CN2CCCC2)c2ccccn2)cc1 [TRIPROLIDINE]
Compound NOT metabolized: [3] | [4] | [5] | [6] | [7] | [9] | [10] | [12] | [13] | [15] | [16] | [17] | [18]

O=C(O[C@H]1C[C@H]2CC[C@@H](C1)[N+]21CCCC1)C(O)(c1ccccc1)c1ccccc1.[Cl-] [TROSPIUM CHLORIDE]
Compound NOT metabolized: [1] | [2] | [3] | [4] | [19] | [7] | [9] | [10] | [11] | [12] | [13] | [14] | [15] | [16] | [17] | [18]
